System: worker ants of Myrmica ruginodis
Assay: Bioassay for selection of odor source (two arms of a four-arm olfactometer)
Assay type: in vivo
Settings: 10 ants per group, 3 repetitions, max 5 min
Procedure: Bioassays were performed using the worker ants of Myrmica ruginodis which had been collected in Niigata Prefecture in Japan. The bioassays were performed using only two arms of a four-arm olfactometer (classic 4-Choice Arena Orfactometer, Sigma Scientific LLC) as shown in FIG. 5. Pure air filled in a 47 L gas cylinder was used as an air source, and the air flow rate was adjusted by a regulator. […] The ants were used as each group consisting of 10 ants, the test was started at the time of entering the ants from the inlet 1, and the selection for the odor source was made for a maximum of 5 minutes per repetition. The choice of odor source was determined by counting the number of ants in the insect separation chamber 2 at the end of the test. Five minutes after the start of the experiment, and when all 10 ants selected any one of odor sources, the results were recorded, and the tested ants were removed. Then three repetitions (using a total of 30 ants) of experiments were performed. Each cotton swab serving as an odor source was installed in each odor source installation adapter 3, and was replaced with a new one at every repetition. The glassware was washed after each repetition, and the odor source installation adapter for installing an odor source in the olfactometer was selected randomly. […]

CCCCCC(=O)CC [3-octanone]
number of ants gathering at the odor source (choice of odor source) (cotton swab containing 1.1 mg of mixture (3-octanone diluted with distilled water with Triton X-100) vs distilled water control, FIG. 2): gathered in the alarm pheromone compound treatment section | number of ants gathering at the odor source (choice of odor source) (cotton swab containing 7.6 mg of mixture (3-octanone diluted in distilled water with Triton X-100) vs distilled water control, FIG. 1): gathered in the control section, while avoiding the alarm pheromone compound treatment section
